Results published in paper PMC6968685 (Journal of Enzyme Inhibition and Medicinal Chemistry, 2020).
Where a name gives a salt, the structure may show the parent alone. Read-outs that look alike come from different tables or passages of the source.

What was measured:
[1] = tested on: Plasmodium telomeric sequence FPf1T G-quadruplex; test: FRET melting experiments, FPf1T; type: binding, P. falciparum; conditions: K+ conditions
Experimental: (§1) These were performed with dual-labelled oligonucleotides mimicking the Plasmodium telomeric sequences FPf1T [FAM-5′(GGGTTTA)3-GGG3′-TAMRA] and FPf8T [FAM-5′ (GGGTTCA)3GGG3′-TAMRA], the Trypanosoma 9 and 11 chromosomic sequence FTrypBT (also named FEBR1T) [FAM-5′[…]3′-TAMRA], the human telomeric sequence F21T [FAM-(GGGTTA)3-GGG3′-TAMRA], and the human duplex sequence FdxT [FAM5′-[…]-hexaethyleneglycol-[…]3′-TAMRA][51]^,[52]. The oligonucleotides were pre-folded in 10 mM lithium cacodylate buffer (pH 7.2), with 10 mM KCl and 90 mM LiCl (K^+condition). The FAM emissions were recorded at 516 nm using a 492-nm excitation wavelength in the absence and presence of a single compound as a function of temperature (25–95 °C) in 96-well microplates by using a Stratagene MX3000P real-time PCR device at a rate of 1 °C·min^−1. Data were normalised between 0 and 1, and the required temperature for half-denaturation of oligonucleotides corresponding to the emission value of 0.5 was taken as the Tm. […] For each compound, three independent experiments were carried out.

[2] = tested on: Plasmodium telomeric sequence FPf8T G-quadruplex; test: FRET melting experiments, FPf8T; type: binding, P. falciparum; conditions: K+ conditions
Experimental: as §1

[3] = tested on: Trypanosoma 9 and 11 chromosomic sequence FTrypBT (FEBR1T) G-quadruplex; test: FRET melting experiments, FtrypBT; type: binding, T. brucei brucei; conditions: K+ conditions
Experimental: as §1

[4] = tested on: human telomeric sequence F21T G-quadruplex; test: FRET melting experiments, F21T; type: binding; conditions: K+ conditions
Experimental: as §1

[5] = tested on: human duplex sequence FdxT; test: FRET melting experiments, FdxT duplex control; type: binding; conditions: K+ conditions
Experimental: as §1

[6] = tested on: P. falciparum CQ-sensitive strain 3D7; test: In vitro antiplasmodial activity, SYBR Green I fluorescence-based method, strain 3D7; type: cell-based; conditions: Plasmodium falciparum, read-out: P. falciparum strains IC50 values, 3D7
Method in brief: (§2)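 P. falciparum 3D7 and W2 cultured in human erythrocytes in RPMI with 0.5% Albumax I at 37 °C, exposed 48 h to compounds tested […]. Parasite DNA read by SYBR Green I fluorescence (ex 485/em 535 nm); IC50 by non-linear regression, mean of three independent experiments.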

[7] = tested on: L. donovani (MHOM/IN/00/DEVI) promastigotes; test: In vitro antileishmanial activity, MTT assay on promastigotes; type: cell-based; conditions: Leishmania donovani, 72 h incubation, ≥10 = no activity noted at the highest concentration tested
Method in brief: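 Log-phase L. donovani MHOM/IN/00/DEVI promastigotes (10^6/ml, Schneider's + 20% FCS) were exposed to graded compound concentrations (DMSO <0.5% v/v) for 72 h at 27 °C, in duplicate. Growth measured by MTT reduction (4 h, A570 nm); IC50 obtained by regression.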

[8] = tested on: T. brucei brucei AnTat 1.9; test: In vitro antitrypanosomal activity, Alamar Blue assay; type: cell-based; conditions: Trypanosoma brucei; slender bloodstream trypomastigotes, AnTat 1.9 strain; read-out: Trypanosoma brucei brucei IC50 values, Trypanos Antat 1.9
Method in brief: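 Viability read-out: resazurin (Alamar Blue) fluorescence, 530 nm excitation/590 nm emission, after 5 h dye exposure following 69 h compound incubation at 37 °C, 5% CO2, 2000 parasites per well, doses in duplicate. IC50 values fitted nonlinearly, three independent runs.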

[9] = Cytotoxicity evaluation, MTT; type: cell-based, human; conditions: human
Method in brief: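 HepG2 hepatocarcinoma cells exposed to compound in duplicate, then viability measured by MTT reduction (0.5 mg/ml), formazan dissolved in DMSO and read at 570 nm against 630 nm. Viability expressed as percent of untreated cells; CC50 taken from dose-response curve, doxorubicin as positive control.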

[10] = tested on: P. falciparum CQ-resistant strain W2; test: In vitro antiplasmodial activity, SYBR Green I fluorescence-based method, strain W2; type: cell-based; conditions: Plasmodium falciparum, read-out: P. falciparum strains IC50 values, W2
Method in brief: as §2

[11] = chloroquine-sensitive strain 3D7, 48 h incubation
[12] = 2 μM compound, 0.2 μM oligonucleotide

| SMILES | IC50 [6, 11] [nM] | IC50 [7] [nM] | IC50 [8] [nM] | CC50 at 72 h [9] [nM] | ΔTm FPf1T [1, 12] [°C] | ΔTm FPf8T [2, 12] [°C] | ΔTm FtrypBT [3, 12] [°C] | ΔTm F21T [4, 12] [°C] | ΔTm FdxT [5, 12] [°C] | melting point [°C] | further results |
| --- | --- | --- | --- | --- | --- | --- | --- | --- | --- | --- | --- |
| C[n+]1cc(NC(=O)c2ccc3ccc4ccc(C(=O)Nc5cc6ccccc6[n+](C)c5)nc4c3n2)cc2ccccc21 [PhenDC3, reference compound] |  |  |  |  |  |  |  |  |  |  | ΔTm FPf1T ([1]; tested at 0.5 μM): 24.6 ± 0.1 °C; ΔTm FPf8T ([2]; tested at 0.5 μM): 24.7 ± 0.2 °C; ΔTm FtrypBT ([3]; tested at 0.5 μM): 19.2 ± 0.2 °C; ΔTm F21T ([4]; tested at 0.5 μM): 26.3 ± 0.1 °C; ΔTm FdxT ([5]; tested at 0.5 μM): 0.1 ± 0.2 °C |
| c1cc(CNCCN2CCOCC2)cc(-c2nc(-c3cccc(CNCCN4CCOCC4)c3)c3ccccc3n2)c1 [Compound 3v, 2,4-Bis{3-[(2-morpholinoethyl)aminomethyl]phenyl}quinazoline] | 360 ± 126 | ≥ 10000 | 1370 ± 658 | 6460 ± 1000 | 0.5 ± 0.3 | 0.5 ± 0.4 | 0.6 ± 0.1 | 0.1 ± 0.1 | 0.0 ± 0.0 |  |  |
| CN(C)CCCNCc1ccc(-c2nc(-c3ccc(CNCCCN(C)C)cc3)c3ccccc3n2)cc1 [Compound 3b, 2,4-Bis{4-[(3-dimethylaminopropyl)aminomethyl]phenyl}quinazoline] | 620 ± 77 | ≥ 10000 | 1180 ± 57 | 4010 ± 800 | 11.6 ± 1.1 | 11.2 ± 0.8 | 10.0 ± 0.4 | 13.2 ± 0.3 | 0.1 ± 0.1 |  |  |
| c1ccc2c(-c3ccc(CNCCCN4CCOCC4)cc3)cc(-c3ccc(CNCCCN4CCOCC4)cc3)nc2c1 [Compound 1g, 2,4-Bis{4-[(3-morpholinopropyl)aminomethyl]phenyl}quinoline] | 99 ± 7 | ≥ 10000 | 380 ± 45 | 1470 ± 300 | 3.7 ± 0.3 | 3.7 ± 0.6 | 2.0 ± 0.2 | 7.1 ± 2.7 | −1.8 ± 0.4 |  |  |
| c1ccc2c(-c3ccc(CNCCCN4CCOCC4)cc3)nc(-c3ccc(CNCCCN4CCOCC4)cc3)nc2c1 [Compound 3f, 2,4-Bis{4-[(3-morpholinopropyl)aminomethyl]phenyl}quinazoline] | 420 ± 83 | ≥ 10000 | 810 ± 63 | 4520 ± 400 | 3.3 ± 0.3 | 2.9 ± 0.3 | 2.8 ± 0.1 | 3.1 ± 0.5 | −0.2 ± 0.2 |  |  |
| c1ccc2c(-c3ccc(CNCCN4CCOCC4)cc3)nc(-c3ccc(CNCCN4CCOCC4)cc3)nc2c1 [Compound 3g, 2,4-Bis{4-[(2-morpholinoethyl)aminomethyl]phenyl}quinazoline] | 150 ± 27 | ≥ 10000 | 1270 ± 632 | 4080 ± 600 | 1.4 ± 0.1 | 1.2 ± 0.4 | 1.0 ± 0.5 | 4.2 ± 2.1 | 0.3 ± 0.2 |  |  |
| c1cc(CNCCN2CCOCC2)cc(-c2cc(-c3cccc(CNCCN4CCOCC4)c3)c3ccccc3n2)c1 [Compound 1t, 2,4-Bis{3-[(2-morpholinoethyl)aminomethyl]phenyl}quinoline] | 230 ± 21 | ≥ 10000 | 460 ± 120 | 3930 ± 1100 | 0.9 ± 0.2 | 0.6 ± 0.7 | 0.6 ± 0.4 | 0.3 ± 0.3 | −1.6 ± 0.4 |  |  |
| OC(c1cc(C(F)(F)F)nc2c(C(F)(F)F)cccc12)C1CCCCN1 (centres unmarked) [Mefloquine, reference compound] | 60 ± 3 |  |  |  |  |  |  |  |  |  | IC50 ([10]; chloroquine-resistant strain W2, 48 h incubation): 16 ± 2 nM; ΔTm FPf1T ([1]; tested at 1 μM): 3.1 ± 0.5 °C; ΔTm FPf8T ([2]; tested at 1 μM): 6.6 ± 2.3 °C; ΔTm F21T ([4]; tested at 1 μM): 2.6 ± 0.5 °C |
| CCN(CC)CCCC(C)Nc1ccnc2cc(Cl)ccc12 (centres unmarked) [Chloroquine, reference compound] |  |  |  |  |  |  |  |  |  |  | IC50 ([10]; W2, 48 h): 400 ± 40 nM; IC50 ([6]; 3D7, 48 h): 110 ± 10 nM; ΔTm FPf1T ([1]; tested at 1 μM): 1.9 ± 0.1 °C; ΔTm FPf8T ([2]; tested at 1 μM): 2.4 ± 1.2 °C; ΔTm F21T ([4]; tested at 1 μM): 2.4 ± 1.1 °C |
| COc1ccc2c(-c3ccc(CNCCCN4CCN(C)CC4)cc3)nc(-c3ccc(CNCCCN4CCN(C)CC4)cc3)cc2c1 (as salt: (cooh)2) [Compound 2l] |  |  |  |  |  |  |  |  |  | 226 to 228 |  |
| c1ccc2c(-c3ccc(CNCCN4CCOCC4)cc3)nc(-c3ccc(CNCCN4CCOCC4)cc3)nc2c1 (as salt: (cooh)2) [Compound 3g, 2,4-Bis{4-[(2-morpholinoethyl)aminomethyl]phenyl}quinazoline] |  |  |  |  |  |  |  |  |  | 195 to 197 |  |
| CN(C)CCCCNCc1ccc(-c2cc3ccccc3c(-c3ccc(CNCCCCN(C)C)cc3)n2)cc1 (as salt: (cooh)2) [Compound 2a, 1,3-Bis{4-[(4-dimethylaminobutyl)aminomethyl]phenyl}isoquinoline] |  |  |  |  |  |  |  |  |  | 184 to 186 |  |
| COc1ccc2cc(-c3ccc(CNCCCCN4CCN(C)CC4)cc3)nc(-c3ccc(CNCCCCN4CCN(C)CC4)cc3)c2c1 (as salt: (cooh)2) [Compound 2g, 7-Methoxy-1,3-bis{4-[(4–(4-methylpiperazin-1-yl)butyl)aminomethyl]phenyl}isoquinoline] |  |  |  |  |  |  |  |  |  | 172 to 174 |  |
| c1ccc2c(-c3ccc(CNCCCN4CCOCC4)cc3)cc(-c3ccc(CNCCCN4CCOCC4)cc3)nc2c1 (as salt: (cooh)2) [Compound 1g, 2,4-Bis{4-[(3-morpholinopropyl)aminomethyl]phenyl}quinoline] |  |  |  |  |  |  |  |  |  | 202 to 204 |  |
| COc1ccc2cc(-c3ccc(CNCCCN4CCN(C)CC4)cc3)nc(-c3ccc(CNCCCN4CCN(C)CC4)cc3)c2c1 (as salt: (cooh)2) [Compound 2h, 7-Methoxy-1,3-bis{4-[(3–(4-methylpiperazin-1-yl)propyl)aminomethyl]phenyl}isoquinoline] |  |  |  |  |  |  |  |  |  | 195 to 197 |  |
| COc1ccc2c(-c3ccc(CNCCCN(C)C)cc3)nc(-c3ccc(CNCCCN(C)C)cc3)nc2c1 (as salt: (cooh)2) [Compound 3n, 7-Methoxy-2,4-bis{4-[(3-dimethylaminopropyl)aminomethyl]phenyl}quinazoline] |  |  |  |  |  |  |  |  |  | 223 to 225 |  |
| CN1CCN(CCCNCc2cccc(-c3cc(-c4cccc(CNCCCN5CCN(C)CC5)c4)c4ccccc4n3)c2)CC1 (as salt: (cooh)2) [Compound 1r, 2,4-Bis{3-[(3–(4-methylpiperazin-1-yl)propyl)aminomethyl]phenyl}quinoline] |  |  |  |  |  |  |  |  |  | 237 to 239 |  |
